In patent US20200190135A1, “LASSO STRUCTURES AND THEIR SYNTHESIS” (ChromaCon AG, priority 2016, published 2020):
Values belong to the compound of their own block, whether it stands above or below them. Numbered stars: 1 amine (or outer) side, 2 acyl side, 3 side chain; on linkers, the order of the positions; unused ones are H or OH. Square brackets hold non-standard residues; d marks the D form. Peptide text beside a SMILES is read from it. * marks the point of attachment. ξ: configuration not given here. X1 = O=C(NCCOCCN(CC(=O)[*:2])[*:1])c1ccc(F)cc1; X2 = c1cc2c(cc1CCN*)OCCOCCOCCOCCOCCOCCO2; Thr(3ξ) = CC(O)[C@H](N)C(=O)O; GABA = NCCCC(=O)O; Cam = NC(=O)C*

Tests used:
Assay type in all cases: in vitro ADME
[1] = tested on: trypsin; assay: Proteolytic stability, incubation with trypsin; conditions: incubation for 24 h with trypsin (FIG. 13)
Protocol: (§1) Proteolytic stability of lasso compounds L1, L2, and L3 in comparison to their branched macrocyclic compounds B1, B2, and B3 and the cyclic peptide analogue C1 (see FIG. 11) was tested in separate experiments by incubation for 24 h with chymotrypsin (FIG. 12), trypsin (FIG. 13) and proteinase K (FIG. 14).

[2] = target: proteinase K (Parengyodontium album, UniProt P06873); assay: Proteolytic stability, incubation with proteinase K; conditions: incubation for 24 h with proteinase K (FIG. 14)
proteinase K, sequence (P06873 106-384): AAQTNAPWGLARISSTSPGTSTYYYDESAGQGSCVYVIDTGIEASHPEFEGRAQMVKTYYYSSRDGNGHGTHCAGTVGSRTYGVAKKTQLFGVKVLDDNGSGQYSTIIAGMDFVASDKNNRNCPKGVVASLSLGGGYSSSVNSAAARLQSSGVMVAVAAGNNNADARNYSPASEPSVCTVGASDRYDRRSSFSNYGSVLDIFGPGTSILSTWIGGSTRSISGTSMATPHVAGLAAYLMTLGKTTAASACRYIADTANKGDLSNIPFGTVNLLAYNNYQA
Protocol: as §1

[3] = Serum stability, incubation with human serum; conditions: incubation for 24 h with human serum (FIG. 16)
Protocol: Serum stability of compounds L1, L2, and L3 in comparison to their branched macrocyclic compounds B1, B2, and B3, the cyclic peptide C1, and the linear C- and N-terminally unmasked derivative R1 (see FIG. 15) was tested by incubation for 24 h with human serum (FIG. 16).

Compound: CC(C)C[C@@H]1NC(=O)[C@H](C(C)O)NC(=O)[C@H](CCCCN)NC(=O)[C@@H](Cc2c[nH]c3ccccc23)NC(=O)[C@H](Cc2ccccc2)NC(=O)[C@H](CSCC(N)=O)NC(=O)CNC(=O)[C@H](Cc2ccccc2)NC(=O)CCCNC1=O (stereo partly shown) [C1] (cyclo(C(Cam)F[dW]K[Thr(3ξ)]L[GABA]FG))
- stability versus trypsin degradation [1]: similarly stable as L1-L3
- stability versus proteinase K degradation [2]: similarly stable as L1-L3

- degradation in human serum (in words) [3]: degraded rapidly and completely
Compound: CC(C)C[C@H](NC(=O)[C@@H](NC(=O)[C@H](CCCCN)NC(=O)[C@@H](Cc1c[nH]c2ccccc12)NC(=O)[C@H](Cc1ccccc1)NC(=O)[C@H](CSCC(N)=O)NC(=O)CNC(=O)[C@@H](N)Cc1ccccc1)[C@@H](C)O)C(=O)O [R1] (H-FGC(Cam)F[dW]KTL-OH)

- remaining at 24 h ([3]; read-out: remaining compound at the final time point): ~70%
Compound: CC(C)C[C@H](NC(=O)[C@@H](NC(=O)[C@H](CCCCN)NC(=O)[C@@H](Cc1c[nH]c2ccccc12)NC(=O)[C@H](Cc1ccccc1)NC(=O)[C@H](CSCC(N)=O)NC(=O)CNC(=O)[C@H](Cc1ccccc1)NC(=O)CNCCOCCNC(=O)c1ccc(F)cc1)[C@@H](C)O)C(=O)NCCCC(=O)NCCc1ccc2c(c1)OCCOCCOCCOCCOCCOCCO2 [L1] (H-[X1]FGC(Cam)F[dW]KTL[GABA]-X2)
